Results from patent US20090312322A1, “Use of Oxindole Derivatives in the Treatment of Dementia Related Diseases, Alzheimer's Disease and Conditions Associated with Glycogen Synthase Kinase-3” (AstraZeneca AB, priority 2001, published 2009).

| melting point | Structure (SMILES) |
| --- | --- |
| 211 to 214 °C | COc1cc2c(C3C(=O)Nc4c(F)cccc43)ncnc2cc1OCCCN1CCOCC1.Cl.Cl (stereo not shown) |
| 200 °C (dec.) | CN1CCN(CCCOc2ccc3c(C4C(=O)Nc5ccc(C#N)cc54)ncnc3c2)CC1.Cl.Cl (stereo not shown) |
| 167.5 to 168.7 °C | CN(C)C(=O)c1ccc2c(c1)C(c1ncnc3cc(OCCCN4CCOCC4)ccc13)C(=O)N2 (stereo not shown) [Example 43, 3-[7-(3-Morpholin-4-yl-propoxy)quinazolin-4-yl]-2-oxo-2,3-dihydro-1H-indole-5-carboxylic acid dimethylamide] |
| 195 to 198 °C | CNC(=O)c1ccc2c(c1)C(c1ncnc3cc(OCCCN4CCOCC4)ccc13)C(=O)N2 (stereo not shown) [Example 44, 3-[7-(3-Morpholin-4-yl-propoxy)-quinazolin-4-yl]-2-oxo-2,3-dihydro-1H-indole-5-carboxylic acid methylamide] |
